Measured values reported in US20240301319A1, “PERFUMING COMPOSITIONS” (FIRMNICH SA, priority 2017, published 2024).

Key:
[1] = Volatility of perfuming compounds (Tables 4 to 10), with top/middle/bottom note type; format: physicochemical
Protocol: In some aspects, the first perfume accord comprises perfuming compounds having a volatility ranging from 70,000 to 100 μg/l in air. In some aspects, perfuming compounds having a volatility ranging from 70,000 to 100 μg/l in air are referred to as “top notes”.
In some aspects, the second perfume accord comprises perfuming compounds having a volatility ranging from 99 to 50 μg/l in air. In some aspects, perfuming compounds having a volatility ranging from 99 to 50 μg/l in air are referred to as “middle notes”.
In some aspects, the third perfume accord comprises perfuming compounds having a volatility ranging from 49 to 0.1 μg/l in air. In some aspects, perfuming compounds having a volatility ranging from 49 to 0.1 μg/l in air are referred to as “bottom notes”.
Tables 4 to 10 describe top, middle and bottom note perfuming compounds for watery, green, fruity, citrus, sweet, gourmand and woody notes respectively.

[2] = Odor threshold and odor value of perfuming compounds (Tables 4 to 10)
[3] = Table 6, perfuming compounds having a fruity note
[4] = Table 6, perfuming compounds having a fruity note, note type by volatility
[5] = note type (Top/Middle/Bottom) by volatility, perfuming compounds having a green note
[6] = perfuming compounds having a green note
[7] = Table 8, perfuming compounds having a sweet note
[8] = Table 8, perfuming compounds having a sweet note, note type by volatility
[9] = Table 7, citrus note, top, middle or bottom note

Compound | Volatility [1, 3] [μg/l air] | Type [1, 4] | also measured
C[C@@H]1CC[C@@H](C(C)(C)S)C(=O)C1 [(1R,4R)-8-MERCAPTO-3-P-MENTHANONE] | 155.12 | TOP (perfuming compounds having a volatility ranging from 70,000 to 100 μg/l in air are referred to as “top notes”) | Type [1, 5]: Top; Volatility (μg/l air) [1, 6]: 155.12 μg/l air; Odor Threshold (μg/l air) [2, 6]: 3.43E−05 μg/l air
CC(=O)OCCC(C)CC(C)(C)C (stereo not shown) [3,5,5-TRIMETHYLHEXYL ACETATE] | 1461.80 | TOP (perfuming compounds having a volatility ranging from 70,000 to 100 μg/l in air are referred to as “top notes”) | –
Cc1ccc(OC(=O)C(C)C)cc1 [4-METHYLPHENYL ISOBUTYRATE] | 167.81 | TOP (perfuming compounds having a volatility ranging from 70,000 to 100 μg/l in air are referred to as “top notes”) | –
CC(=O)OCc1ccccc1 [benzyl acetate] | 507.38 | TOP (perfuming compounds having a volatility ranging from 70,000 to 100 μg/l in air are referred to as “top notes”) | –
COc1ccc2ccccc2c1 [2-METHOXYNAPHTHALENE] | – | – | Odor Threshold [2, 7]: 1.02E−05 μg/l air; Odor Value [2, 7]: 5.00E+06; Odor Threshold ([2]; Table 9, gourmand note): 1.02E−05 μg/l air
CCCCCCC(C)=O [2-OCTANONE] | 6639.71 | TOP (perfuming compounds having a volatility ranging from 70,000 to 100 μg/l in air are referred to as “top notes”) | –
C=CC(=C)CCC=C(C)C | 15094.56 | TOP (perfuming compounds having a volatility ranging from 70,000 to 100 μg/l in air are referred to as “top notes”) | –
CCOC(=O)/C(C)=C/C(C)C [ethyl (2E)-2,4-dimethyl-2-pentenoate] | 1618.37 | TOP (perfuming compounds having a volatility ranging from 70,000 to 100 μg/l in air are referred to as “top notes”) | –
CCCCCCCC1CCC(=O)O1 (racemic) [(+−)-5-heptyldihydro-2(3H)-furanone] | – | – | Odor Threshold [2, 3]: 3.16E−05 μg/l air; Odor Value [2, 3]: 1.16E+05; Odor Threshold [2, 7]: 3.16E−05 μg/l air; Odor Value [2, 7]: 1.16E+05; Odor Threshold ([2]; Table 9, gourmand note): 3.16E−05 μg/l air
CC(=O)OC(C)(C)Cc1ccccc1 [1,1-DIMETHYL-2-PHENYLETHYL ACETATE] | 198.02 | TOP (perfuming compounds having a volatility ranging from 70,000 to 100 μg/l in air are referred to as “top notes”) | –
CC/C=C\CCCCCO [(Z)-6-NONEN-1-OL] | – | – | Volatility (μg/l air) ([1]; Table 4, watery note): 6.91 μg/l air; Type ([1]; Table 4, watery note, top, middle or bottom note): bottom (perfuming compounds having a volatility ranging from 49 to 0.1 μg/l in air are referred to as “bottom notes”); Type [1, 5]: Bottom; Volatility (μg/l air) [1, 6]: 6.91 μg/l air
CC1(C)C2CC[C@@]1(C)C(=O)C2 (single isomer, unassigned; (+)) | 555.04 | TOP (perfuming compounds having a volatility ranging from 70,000 to 100 μg/l in air are referred to as “top notes”) | –
CC1(C)CCC[C@]2(C)[C@H]3CCO[C@]3(C)CC[C@@H]12 | – | – | Type ([1]; Table 10, perfuming compounds having a woody note, note type by volatility): Bottom
O=Cc1ccccc1 [BENZALDEHYDE] | – | – | Volatility [1, 7]: 8207.00 μg/l air; Type [1, 8]: Top; Type [1, 5]: Top; Volatility (μg/l air) [1, 6]: 8207.00 μg/l air
CCCCCC(C)=O [2-HEPTANONE] | 26409.73 | TOP (perfuming compounds having a volatility ranging from 70,000 to 100 μg/l in air are referred to as “top notes”) | –
C=CCOC(=O)CCCCC [ALLYL HEXANOATE] | 941.49 | TOP (perfuming compounds having a volatility ranging from 70,000 to 100 μg/l in air are referred to as “top notes”) | –
C=C1CCCC(C)(C)C1C(=O)OC (racemic) | 1089.25 | TOP (perfuming compounds having a volatility ranging from 70,000 to 100 μg/l in air are referred to as “top notes”) | –
CCCCCC(=O)CC [3-OCTANONE] | 6787.60 | TOP (perfuming compounds having a volatility ranging from 70,000 to 100 μg/l in air are referred to as “top notes”) | –
CC1CCC(=O)O1 (racemic) [(+−)-4-PENTANOLIDE] | 2355.15 | TOP (perfuming compounds having a volatility ranging from 70,000 to 100 μg/l in air are referred to as “top notes”) | Volatility (μg/l air) ([1]; Table 7, citrus note): 2355.15 μg/l air; Type [1, 9]: Top
CCCCCCC1CCCC(=O)O1 (stereo not shown) [6-hexyltetrahydro-2H-pyran-2-one] | 4.64 | Bottom | Volatility [1, 7]: 4.64 μg/l air; Type [1, 8]: Bottom; Volatility ([1]; Table 9, gourmand note): 4.64 μg/l air; Type ([1]; Table 9, perfuming compounds having a gourmand note, note type by volatility): Bottom

Compound | Volatility [1, 3] [μg/l air] | Type [1, 4] | also measured
CC(C)=CCCC(C)=CCO | – | – | Type [1, 9]: Middle
CCOC(=O)c1ccccc1 [ETHYL BENZOATE] | 1285.12 | TOP (perfuming compounds having a volatility ranging from 70,000 to 100 μg/l in air are referred to as “top notes”) | –
C/C=C(\C)C(=O)OCC/C=C\CC | – | – | Type [1, 5]: Top; Volatility (μg/l air) [1, 6]: 168.78 μg/l air
CCCc1ccc(OC)cc1 [1-METHOXY-4-PROPYLBENZENE] | 629.29 | TOP (perfuming compounds having a volatility ranging from 70,000 to 100 μg/l in air are referred to as “top notes”) | –
CCOC(=O)C1=C(C)C=CCC1(C)C | 368.81 | TOP (perfuming compounds having a volatility ranging from 70,000 to 100 μg/l in air are referred to as “top notes”) | –
CC/C=C\C[C@H]1C(=O)CC[C@@H]1CC(=O)OC (racemic) | 1.59 | Bottom | –
CC(C)=CCC/C(C)=C\CO | – | – | Volatility (μg/l air) ([1]; Table 7, citrus note): 86.02 μg/l air; Type [1, 9]: Middle
CCOC(=O)Cc1ccccc1 [ETHYL PHENYLACETATE] | 269.77 | TOP (perfuming compounds having a volatility ranging from 70,000 to 100 μg/l in air are referred to as “top notes”) | –
CCCCCC1(C)CCC(C)(C)C1=O (racemic) | 265.42 | TOP (perfuming compounds having a volatility ranging from 70,000 to 100 μg/l in air are referred to as “top notes”) | –
CCOC(=O)C(C)C [ETHYL ISOBUTYRATE] | 132964.09 | TOP (perfuming compounds having a volatility ranging from 70,000 to 100 μg/l in air are referred to as “top notes”) | –
CCCOC(=O)[C@H](C)OC(C)(C)CC | 995.16 | TOP (perfuming compounds having a volatility ranging from 70,000 to 100 μg/l in air are referred to as “top notes”) | –
CCOc1cc(C=O)ccc1O [3-ethoxy-4-hydroxybenzaldehyde] | – | – | Volatility [1, 7]: 0.11 μg/l air; Type [1, 8]: Bottom
COC(=O)C=C1CCCC1 [methyl cyclopentylideneacetate] | 1091.46 | TOP (perfuming compounds having a volatility ranging from 70,000 to 100 μg/l in air are referred to as “top notes”) | –
(+−)-(3E)-3-methyl-4-(2,6,6-trimethyl-2-cyclohexen-1-yl)-3-buten-2-one (A) + (+−)-(1E)-1-(2,6,6-trimethyl-2-cyclohexen-1-yl)-1-penten-3-one (B) | – | – | Type [1, 9]: Bottom
CC(C)(C)Cc1cccnc1 [3-(2,2-DIMETHYLPROPYL)PYRIDINE] | 516.21 | TOP (perfuming compounds having a volatility ranging from 70,000 to 100 μg/l in air are referred to as “top notes”) | –
CC(C)=CCC/C(C)=C/CO | – | – | Volatility (μg/l air) ([1]; Table 7, citrus note): 89.88 μg/l air; Type [1, 9]: Middle
CCCCCCC(=O)OCC [ethyl heptanoate] | 3052.89 | TOP (perfuming compounds having a volatility ranging from 70,000 to 100 μg/l in air are referred to as “top notes”) | –
CC(C)CC(=O)O [3-METHYLBUTANOIC ACID] | – | – | Odor Threshold ([2]; Table 10, woody note): 2.23E−04 μg/l air
CCC(=O)CC(C)CC (stereo not shown) [5-METHYL-3-HEPTANONE] | 14141.42 | TOP (perfuming compounds having a volatility ranging from 70,000 to 100 μg/l in air are referred to as “top notes”) | –
